How the values were obtained:
Test in all cases: relative viability (nuclei count vs DMSO), 5 days (fraction); higher = more cells survive
Midostaurin + Lapatinib = compound: CO[C@@H]1[C@H](N(C)C(=O)c2ccccc2)C[C@H]2O[C@]1(C)n1c3ccccc3c3c4c(c5c6ccccc6n2c5c31)C(=O)NC4 [Midostaurin] + CS(=O)(=O)CCNCc1ccc(-c2ccc3ncnc(Nc4ccc(OCc5cccc(F)c5)c(Cl)c4)c3c2)o1 [Lapatinib] (partner 2 µM)
Summary of the method: (§1)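 Relative viability equals treated-well nuclei counts divided by vehicle-well nuclei counts. Counts came from 4× images of lung cancer cell lines grown in 1536-well plates for 5 days after pin-tool dosing on the day after seeding. Dosing used one drug alone or a fixed anchor-drug dose plus five library-drug doses (not always all listed) in √10 steps, and values are medians of duplicate plates.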

Midostaurin + Olaparib = compound: CO[C@@H]1[C@H](N(C)C(=O)c2ccccc2)C[C@H]2O[C@]1(C)n1c3ccccc3c3c4c(c5c6ccccc6n2c5c31)C(=O)NC4 [Midostaurin] + O=C(c1cc(Cc2n[nH]c(=O)c3ccccc23)ccc1F)N1CCN(C(=O)C2CC2)CC1 [Olaparib] (partner 8 µM)
Summary of the method: as §1

[1] = compound: COc1cc(-c2nn([C@H]3CC[C@H](N4CCN(C(C)=O)CC4)CC3)c3ncnc(N)c23)ccc1NC(=O)c1cc2ccccc2n1C + COc1cccc2cc(-c3nc([C@H]4CC[C@H](C(=O)O)CC4)n4ncnc(N)c34)[nH]c12 [OSI-027] (partner 0.5 µM)
Summary of the method: as §1

[2] = compound: COc1cc(-c2nn([C@H]3CC[C@H](N4CCN(C(C)=O)CC4)CC3)c3ncnc(N)c23)ccc1NC(=O)c1cc2ccccc2n1C + Cc1cc(Nc2cc(N3CCN(C)CC3)nc(Sc3ccc(NC(=O)C4CC4)cc3)n2)n[nH]1 [Tozasertib] (partner 0.1 µM)
Summary of the method: as §1

[3] = compound: COc1cc(-c2nn([C@H]3CC[C@H](N4CCN(C(C)=O)CC4)CC3)c3ncnc(N)c23)ccc1NC(=O)c1cc2ccccc2n1C + Nc1ncn([C@H]2C[C@H](O)[C@@H](CO)O2)c(=O)n1 [Decitabine] (partner 2 µM)
Summary of the method: as §1

201T
relative viability (Midostaurin + Lapatinib; first compound 0.01 µM): 1.06 | relative viability (Midostaurin + Lapatinib; first compound 0.03162 µM): 0.982 | relative viability (Midostaurin + Lapatinib; first compound 0.1 µM): 1.07 | relative viability (Midostaurin + Lapatinib; first compound 0.3162 µM): 1.08 | relative viability (Midostaurin + Olaparib; first compound 0.01 µM): 0.833 | relative viability (Midostaurin + Olaparib; first compound 0.03162 µM): 0.801 | relative viability (Midostaurin + Olaparib; first compound 0.1 µM): 0.815 | relative viability (Midostaurin + Olaparib; first compound 0.3162 µM): 0.86 | relative viability ([1]; first compound 0.0128 µM): 0.646 | relative viability ([1]; first compound 0.04048 µM): 0.765 | relative viability ([1]; first compound 0.128 µM): 0.746 | relative viability ([1]; first compound 1.28 µM): 0.339 | relative viability ([2]; first compound 0.0128 µM): 1 | relative viability ([2]; first compound 0.04048 µM): 0.949 | relative viability ([2]; first compound 0.128 µM): 0.854 | relative viability ([2]; first compound 1.28 µM): 0.523 | relative viability ([3]; first compound 0.0128 µM): 0.929 | relative viability ([3]; first compound 0.04048 µM): 0.919 | relative viability ([3]; first compound 0.128 µM): 0.809 | relative viability ([3]; first compound 1.28 µM): 0.615

A549
relative viability (Midostaurin + Lapatinib; first compound 0.01 µM): 0.954 | relative viability (Midostaurin + Lapatinib; first compound 0.03162 µM): 0.854 | relative viability (Midostaurin + Lapatinib; first compound 0.1 µM): 1 | relative viability (Midostaurin + Lapatinib; first compound 0.3162 µM): 0.212 | relative viability (Midostaurin + Olaparib; first compound 0.01 µM): 0.256 | relative viability (Midostaurin + Olaparib; first compound 0.03162 µM): 0.39 | relative viability (Midostaurin + Olaparib; first compound 0.1 µM): 0.359 | relative viability (Midostaurin + Olaparib; first compound 0.3162 µM): 0.216 | relative viability ([3]; first compound 0.0128 µM): 0.237 | relative viability ([3]; first compound 0.04048 µM): 0.252 | relative viability ([3]; first compound 0.128 µM): 0.228 | relative viability ([3]; first compound 1.28 µM): 0.245

A-427
relative viability (Midostaurin + Lapatinib; first compound 0.01 µM): 0.95 | relative viability (Midostaurin + Lapatinib; first compound 0.03162 µM): 0.993 | relative viability (Midostaurin + Lapatinib; first compound 0.1 µM): 0.835 | relative viability (Midostaurin + Lapatinib; first compound 0.3162 µM): 1.1 | relative viability (Midostaurin + Olaparib; first compound 0.01 µM): 0.711 | relative viability (Midostaurin + Olaparib; first compound 0.03162 µM): 0.654 | relative viability (Midostaurin + Olaparib; first compound 0.1 µM): 0.713 | relative viability (Midostaurin + Olaparib; first compound 0.3162 µM): 0.725 | relative viability ([1]; first compound 0.0128 µM): 0.497 | relative viability ([1]; first compound 0.128 µM): 0.456 | relative viability ([1]; first compound 1.28 µM): 0.45 | relative viability ([2]; first compound 0.0128 µM): 0.221 | relative viability ([2]; first compound 0.128 µM): 0.222 | relative viability ([2]; first compound 1.28 µM): 0.185 | relative viability ([3]; first compound 0.0128 µM): 0.529 | relative viability ([3]; first compound 0.04048 µM): 0.589 | relative viability ([3]; first compound 0.128 µM): 0.571 | relative viability ([3]; first compound 1.28 µM): 0.666

ABC-1
relative viability (Midostaurin + Lapatinib; first compound 0.01 µM): 1.05 | relative viability (Midostaurin + Lapatinib; first compound 0.03162 µM): 1.29 | relative viability (Midostaurin + Lapatinib; first compound 0.1 µM): 1 | relative viability (Midostaurin + Lapatinib; first compound 0.3162 µM): 1.17 | relative viability (Midostaurin + Olaparib; first compound 0.01 µM): 0.691 | relative viability (Midostaurin + Olaparib; first compound 0.03162 µM): 1.31 | relative viability (Midostaurin + Olaparib; first compound 0.1 µM): 0.59 | relative viability (Midostaurin + Olaparib; first compound 0.3162 µM): 0.928 | relative viability ([1]; first compound 0.0128 µM): 0.499 | relative viability ([1]; first compound 0.04048 µM): 0.434 | relative viability ([1]; first compound 0.128 µM): 0.384 | relative viability ([1]; first compound 1.28 µM): 0.377 | relative viability ([2]; first compound 0.0128 µM): 0.151 | relative viability ([2]; first compound 0.04048 µM): 0.205 | relative viability ([2]; first compound 0.128 µM): 0.176 | relative viability ([2]; first compound 1.28 µM): 0.154 | relative viability ([3]; first compound 0.0128 µM): 1.19 | relative viability ([3]; first compound 0.04048 µM): 1.03 | relative viability ([3]; first compound 0.128 µM): 0.835 | relative viability ([3]; first compound 1.28 µM): 0.998

BEN
relative viability (Midostaurin + Lapatinib; first compound 0.01 µM): 0.718 | relative viability (Midostaurin + Lapatinib; first compound 0.03162 µM): 0.719 | relative viability (Midostaurin + Lapatinib; first compound 0.1 µM): 0.777 | relative viability (Midostaurin + Lapatinib; first compound 0.3162 µM): 0.815 | relative viability (Midostaurin + Olaparib; first compound 0.01 µM): 1.12 | relative viability (Midostaurin + Olaparib; first compound 0.03162 µM): 1.24 | relative viability (Midostaurin + Olaparib; first compound 0.1 µM): 0.928 | relative viability (Midostaurin + Olaparib; first compound 0.3162 µM): 1.13 | relative viability ([1]; first compound 0.0128 µM): 0.27 | relative viability ([1]; first compound 0.04048 µM): 0.296 | relative viability ([1]; first compound 0.128 µM): 0.311 | relative viability ([1]; first compound 1.28 µM): 0.291 | relative viability ([2]; first compound 0.0128 µM): 0.56 | relative viability ([2]; first compound 0.04048 µM): 0.569 | relative viability ([2]; first compound 0.128 µM): 0.518 | relative viability ([2]; first compound 1.28 µM): 0.432 | relative viability ([3]; first compound 0.0128 µM): 0.571 | relative viability ([3]; first compound 0.04048 µM): 0.733 | relative viability ([3]; first compound 0.128 µM): 0.708 | relative viability ([3]; first compound 1.28 µM): 0.582

CAL-12T
relative viability (Midostaurin + Lapatinib; first compound 0.01 µM): 0.726 | relative viability (Midostaurin + Lapatinib; first compound 0.03162 µM): 0.447 | relative viability (Midostaurin + Lapatinib; first compound 0.1 µM): 0.603 | relative viability (Midostaurin + Lapatinib; first compound 0.3162 µM): 0.498 | relative viability (Midostaurin + Olaparib; first compound 0.01 µM): 0.76 | relative viability (Midostaurin + Olaparib; first compound 0.03162 µM): 0.585 | relative viability (Midostaurin + Olaparib; first compound 0.1 µM): 0.681 | relative viability (Midostaurin + Olaparib; first compound 0.3162 µM): 0.633 | relative viability ([1]; first compound 0.0128 µM): 0.638 | relative viability ([1]; first compound 0.04048 µM): 0.497 | relative viability ([1]; first compound 0.128 µM): 0.7 | relative viability ([1]; first compound 1.28 µM): 0.461 | relative viability ([2]; first compound 0.0128 µM): 0.29 | relative viability ([2]; first compound 0.04048 µM): 0.275 | relative viability ([2]; first compound 0.128 µM): 0.221 | relative viability ([2]; first compound 1.28 µM): 0.178

COR-L23
relative viability (Midostaurin + Lapatinib; first compound 0.01 µM): 0.922 | relative viability (Midostaurin + Lapatinib; first compound 0.03162 µM): 1.1 | relative viability (Midostaurin + Lapatinib; first compound 0.1 µM): 0.835 | relative viability (Midostaurin + Lapatinib; first compound 0.3162 µM): 0.855 | relative viability (Midostaurin + Olaparib; first compound 0.01 µM): 0.386 | relative viability (Midostaurin + Olaparib; first compound 0.03162 µM): 0.269 | relative viability (Midostaurin + Olaparib; first compound 0.1 µM): 0.279 | relative viability (Midostaurin + Olaparib; first compound 0.3162 µM): 0.255 | relative viability ([1]; first compound 0.0128 µM): 0.753 | relative viability ([1]; first compound 0.04048 µM): 0.752 | relative viability ([1]; first compound 0.128 µM): 0.71 | relative viability ([1]; first compound 1.28 µM): 0.672 | relative viability ([2]; first compound 0.0128 µM): 0.246 | relative viability ([2]; first compound 0.04048 µM): 0.217 | relative viability ([2]; first compound 0.128 µM): 0.147 | relative viability ([2]; first compound 1.28 µM): 0.133 | relative viability ([3]; first compound 0.0128 µM): 0.509 | relative viability ([3]; first compound 0.04048 µM): 0.451 | relative viability ([3]; first compound 0.128 µM): 0.446 | relative viability ([3]; first compound 1.28 µM): 0.499

COR-L 105
relative viability (Midostaurin + Lapatinib; first compound 0.01 µM): 0.364 | relative viability (Midostaurin + Lapatinib; first compound 0.03162 µM): 0.395 | relative viability (Midostaurin + Lapatinib; first compound 0.1 µM): 0.357 | relative viability (Midostaurin + Lapatinib; first compound 0.3162 µM): 0.344 | relative viability (Midostaurin + Olaparib; first compound 0.01 µM): 0.829 | relative viability (Midostaurin + Olaparib; first compound 0.03162 µM): 0.626 | relative viability (Midostaurin + Olaparib; first compound 0.1 µM): 0.527 | relative viability (Midostaurin + Olaparib; first compound 0.3162 µM): 0.616 | relative viability ([1]; first compound 0.0128 µM): 0.59 | relative viability ([1]; first compound 0.04048 µM): 0.799 | relative viability ([1]; first compound 0.128 µM): 0.636 | relative viability ([1]; first compound 1.28 µM): 0.343 | relative viability ([2]; first compound 0.0128 µM): 0.335 | relative viability ([2]; first compound 0.04048 µM): 0.309 | relative viability ([2]; first compound 0.128 µM): 0.355 | relative viability ([2]; first compound 1.28 µM): 0.269 | relative viability ([3]; first compound 0.0128 µM): 0.645 | relative viability ([3]; first compound 0.04048 µM): 0.724 | relative viability ([3]; first compound 0.128 µM): 0.653 | relative viability ([3]; first compound 1.28 µM): 0.559

From the supplement of paper PMC10307832
